From patent publication US6469027B1, “N-methyl-D-aspartate (NMDA) receptor blockers for the prevention of atherosclerosis” (The Board of Regents of the University of Nebraska, priority 1996, dated 2002)

Experiments:
[1] = tested on: Rabbit aortic smooth muscle cells; test: Calcium uptake in rabbit aortic smooth muscle cells; type: cell-based; conditions: 10μM for 40 seconds
Method: For each of the following experiments, aortic smooth muscle cells were obtained from 2-3 lb. New Zealand rabbits; these cells were cultured as described above, and evaluated for their responses to Hcy. […] This response is similar to that of the embryonic cells (see above).

TA-VSMCs = test: [3H]thymidine labeling (DNA synthesis) in TA-VSMCs; type: cell-based; conditions: 0.1 to 1 mM
Excerpt: Effect of calcium channel activation on DNA synthesis. Effect of glutamate receptor calcium channels and L-type calcium channels activation was examined by measuring [^3H]thymidine labeling.

Myb protein = test: Expression of Myb protein in rabbit aortic cells; type: cell-based
Method: (§1) For each of the following experiments, aortic smooth muscle cells were obtained from 2-3 lb. New Zealand rabbits; these cells were cultured as described above, and evaluated for their responses to Hcy.

c-fos = c-fos mRNA in N-VSMC (RNA blot); type: cell-based, chicken
Method: FIGS. 3A, 3B and 3C are RNA blot analyses of c-fos and c-myb mRNA isolated from N-VSMC cultures. Cultures were incubated in the absence and presence of 200μM H[cys] for 0, (lane 1); 15 min, (lane 2); 30 min, (lane 3); 45 min, (lane 4) and 60 min, (lane 5); and analyzed for c-fos expression. In FIG. 3B, the time course of c-myb MRNA induction in the presence of 200μM H[cys] for 0 h, (lane 1); 8 h, (lane 2); 16 h, (lane 3); 24 h, (lane 4). The c-fos transcripts were analyzed by northern blot and normalized to β actin expression. The amount of c-myb mRNA levels were normalized to estrogen receptor (ER) transcripts as determined by RT-PCR. […] The amount of c-myb mRNA levels were normalized to estrogen receptor (ER) transcripts as determined by RT-PCR. The amount of specific radiolabeling in the autoradiograph was quantified by scanning densitometry. The size of the c-Myb protein is 75 kilodaltons. The 75 kilodalton band is defined as c-Myb because immunoprecipitation of this protein was not detected in the presence of synthetic polypeptide [[…] encoded by sequences 1080-1133].
RNA Blot Analysis: Total RNA was isolated from VSMC derived from thoracic and abdominal aorta by homogenization, and lysis with guanidinium isothiocyanate was followed by phenol-chloroform extraction. […]

[2] = tested on: VSMC isolated from abdominal; test: [3H]thymidine incorporation (DNA synthesis) in abdominal aorta VSMC; type: cell-based, chicken; conditions: abdominal VSMC compared with N-VSMC
Excerpt: (§2) Smooth Muscle Culture: The thoracic (N) and abdominal (M) aorta of normal 16 and 18-day embryos were cleaned of fat, and the intima-media was isolated from the adventitia. The intima-media was enzymatically dispersed into a single cell suspensions by a combination of collagenase and elastase followed by trypsin. VSMC were placed in primary culture at a constant density of 2×10^4 cells/cm^2 in multiwell plates or 100 mm culture plates in Medium 199 supplemented with 10% fetal bovine serum (FMS) and 2 mM glutamine, in an atmosphere of 95% air: 5% Co2 at 37° C. Primary cultures were grown for 7 days before they were seeded into first passage at the same cell density and grown to confluence. Experiments were carried out between passages 3-6. Experimental conditions for all cells included 48 h in Medium 199 supplemented with 1% FBS prior to initiating and experiment.
(§3) DNA Synthesis: Growth factors were added directly to quiescent VSMCs in Medium 199 as described above. The cells were pulsed between 4-6 h with a final concentration of 2-5 μCi/ml [^3H]thymidine added at the times and for the periods indicated in the figure legends. The cells were washed, and the incorporation of [^3H]thymidine into acid insoluble material was determined as previously described. Den-Heijer, M. et al. (1996), Hyperhomocystinemia as a risk factor for deep-vein thrombosis. N. Eng. J. Med. 334(12):759-762.

rat liver cells = conditions: cited from earlier work
[3] = tested on: human aortic smooth muscle cells; test: 3H thymidine uptake in human aortic smooth muscle cells; type: cell-based
Method: FIG. 13 is a graph illustrating 3 H thymidine uptake of human aortic smooth muscle cells in response to differing concentrations of Hcy.
Smooth muscle cell cultures were established from samples of thoracic aorta obtained during organ transplantation. Confluent early passage cells were growth arrested by serum starvation, then they were treated with Hcy in serum free (defined) medium.

N-VSMC [4] = test: Cell proliferation (cell number) of N-VSMC cultures; type: cell-based, chicken; conditions: 0.01 to 100 μM for 36 h
N-VSMC [5] = test: [3H]thymidine incorporation (DNA synthesis) in N-VSMC cultures; type: cell-based, chicken
Method: FIG. 1 is a graph illustrating homocysteine's effects on the growth of VSMC cultures. Confluent N-VSMC cultures were growth arrested by incubating cells with M199 medium containing 1 μg/ml BSA for 48 h, exposed to various concentrations of H[cys] (0.01-4000μM) for 30 h, pulse labeled for 6 h with 2 μCi/ml [^3H]-thymidine, and cell monolayers were washed twice with cold (0° C.) 10% trichloroacetic acid (TCA). The amount of [^3H]-thymidine incorporation was determined by scintillation spectrophotometry. Results are shown as the means of ±S.D.
FIGS. 2A-2C are graphs illustrating the effects of glutamate, homocysteic acid and NMDA on DNA synthesis in N-VSMC. N-VSMC were cultured and serum-deprived as described in “Experimental Procedures.” Cultures were treated with various concentrations of homocysteic acid (2A), NMDA (2B), or L-glutamate (2C) for 30 and pulsed 6h with [^3H] thymidine. All values are expressed as ±S.D. of six independent experiments completed in quadruplicate.
as §2, §3

PDGG-AA = PDGG-AA release from TA-VSMCs; type: cell-based; conditions: 0.2 mM
Rabbit aortic cells = test: Mitogenesis in rabbit aortic cells; type: cell-based
Method: as §1

c-myb = c-myb expression in TA-VSMCs; type: cell-based
[6] = neural crest derived smooth muscle cells

## N[C@@H](CCS)C(=O)O [homocysteine]
[1]
  calcium flux: significant calcium flux
TA-VSMCs
  DNA synthesis increased: 6 fold
Myb protein
  expression of the Myb protein: dose-responsive expression
c-fos; 200 μM homocysteine
  c-fos mRNA transcripts induced: 15 fold
c-fos; [6]
  c-fos induction: induced
[2]
  effect on DNA synthesis: did not respond similarly
Rat liver cells
  protein bound H[cys] in the microsomal fraction: 50%
[3]; human cell cultures of N-VSMC (data not shown)
  effect on DNA synthesis: observed
[3]; thoracic aorta cells, serum free medium
  uptake of 3H thymidine: significant, dose-responsive increase
N-VSMC [4]
  cell number in the absence of serum: no increase in cell number
N-VSMC [5]; N-VSMC incubated with 0.01 to 4000 μM homocysteine, dose dependent and saturable
  DNA synthesis increased: 12 fold
N-VSMC [5]; homocysteine concentrations above 300 μM
  DNA synthesis at high concentration: completely suppressed
N-VSMC [5]; [6]
  DNA synthesis increased: 5 fold
PDGG-AA
  delay in PDGG-AA release: not observed
Rabbit aortic cells
  mitogenic response: robust mitogenic response
c-myb
  c-myb synthesis: dose-dependent increase
  concentration of maximal effect on c-myb synthesis: < 2.5 mM
